From patent US20080293699A1, “Inhibitors of thapsigargin-induced cell death” (priority 2007, published 2008)

Target: T1, ASK1 (Homo sapiens, UniProt Q99683)
T1 construct: expressed in transfected cells; host or cells: HEK293T
T1 sequence (Q99683 1-1374): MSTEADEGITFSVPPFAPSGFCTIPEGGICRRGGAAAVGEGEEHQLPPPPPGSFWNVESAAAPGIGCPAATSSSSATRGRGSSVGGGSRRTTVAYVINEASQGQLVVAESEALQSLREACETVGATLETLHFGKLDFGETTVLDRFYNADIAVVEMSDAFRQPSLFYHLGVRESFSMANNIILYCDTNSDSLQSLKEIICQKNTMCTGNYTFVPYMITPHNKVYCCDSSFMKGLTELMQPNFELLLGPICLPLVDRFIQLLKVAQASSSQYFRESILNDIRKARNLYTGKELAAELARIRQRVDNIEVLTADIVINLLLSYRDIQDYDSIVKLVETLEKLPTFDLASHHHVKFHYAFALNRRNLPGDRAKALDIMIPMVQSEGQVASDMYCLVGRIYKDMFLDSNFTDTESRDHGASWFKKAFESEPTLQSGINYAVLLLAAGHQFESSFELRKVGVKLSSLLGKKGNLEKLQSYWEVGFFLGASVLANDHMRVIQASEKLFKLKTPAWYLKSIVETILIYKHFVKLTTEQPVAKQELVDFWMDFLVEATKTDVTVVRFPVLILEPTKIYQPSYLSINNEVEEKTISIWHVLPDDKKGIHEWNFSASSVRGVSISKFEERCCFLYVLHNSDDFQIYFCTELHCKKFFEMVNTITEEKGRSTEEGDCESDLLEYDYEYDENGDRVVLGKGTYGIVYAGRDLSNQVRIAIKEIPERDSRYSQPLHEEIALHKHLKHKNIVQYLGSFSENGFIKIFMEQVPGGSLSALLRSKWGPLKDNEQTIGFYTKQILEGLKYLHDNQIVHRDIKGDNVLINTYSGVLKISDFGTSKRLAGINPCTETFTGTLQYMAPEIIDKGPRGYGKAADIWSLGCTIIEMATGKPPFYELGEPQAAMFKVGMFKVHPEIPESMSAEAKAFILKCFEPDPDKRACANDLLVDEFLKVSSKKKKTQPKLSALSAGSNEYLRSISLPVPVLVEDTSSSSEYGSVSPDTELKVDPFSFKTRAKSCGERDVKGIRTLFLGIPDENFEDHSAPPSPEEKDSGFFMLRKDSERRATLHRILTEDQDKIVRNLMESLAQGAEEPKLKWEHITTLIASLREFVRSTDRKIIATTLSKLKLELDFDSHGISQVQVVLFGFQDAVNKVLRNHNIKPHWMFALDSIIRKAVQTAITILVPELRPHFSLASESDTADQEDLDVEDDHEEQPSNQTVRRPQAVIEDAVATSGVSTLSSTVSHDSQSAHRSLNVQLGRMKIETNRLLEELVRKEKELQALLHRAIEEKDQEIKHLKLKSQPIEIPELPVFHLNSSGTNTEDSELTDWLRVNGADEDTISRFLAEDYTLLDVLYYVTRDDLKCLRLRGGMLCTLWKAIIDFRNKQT
Assay: ASK1-MKK6-p38 coupled in vitro kinase assay
Format: biochemical
Protocol: Suppression of thapsigargin-induced phosphorylation of p38MAPK was also measured by a quantitative ELISA-methods, with IC50 for p38MAPK phosphorylation estimated at <5 μM. In contrast, thapsigargin-induced expression of CHOP, expression of ATF4, proteolytic processing of ATF6, phosphorylation of eIF2a (Ser 51), auto-phosphorylation of Ire1a or auto-phosphorylation of ASK1 were not inhibited directly by CID-2878746 at concentrations up to 50 μM tested by in vitro kinase assay using p32-γ-ATP substrate. […] Thapsigargin-induced reductions in phosphorylation of ASK1 at the serine 967 site in ASK1 transfected 293T cells are inhibited by compound 5962123 at concentrations of 50-100 μM, as determined by immunoblotting using anti-phospho-specific (ser 967) antibody, but thapsigargin-induced changes in phosphorylation of ASK1 at ser 83 and thr 845 are not modulated by compound 5962123 at concentrations as high as 100 μM in ASK1-transfected HEK293T cells.
C-Jun and p38 MAPK work downstream of the Ire1 pathway (see FIG. 21), we tested whether one of our hit compounds (6239507) inhibits autophosphorylation of any of kinases in this Ire1-ASK1-JNK/p38 MAPK pathway. […] An Ire1 autophosphorylation assay was performed. […] Incorporation values of ^32P-γ-ATP were evaluated by a scintillation counter. […] Incorporation values of ^32P-γ-ATP were evaluated by a scintillation counter. […]

Compound | Thapsigargin-induced activation of ASK1 in cells (coupled assay with MKK6 and p38MAPK, ASK1 immunoprecipitated from compound-treated (100 μM) HEK293T cells) | Ask1's activity with respect to downstream kinases MKK6 and p38 MAPK (kinases incubated with 50 μM compound in vitro)
CCN(CC)c1ccc(C2Nc3ccccc3NC3=C2C(=O)CC(c2ccccc2)C3)cc1 (centres unmarked) [Compound 5962123, 6-(4-diethylaminophenyl)-9-phenyl-5,6,8,9,10,11-hexahydrobenzo[c][1,5]benzodiazepin-7-one] | failed to inhibit | 
COc1ccc(C2CC(=O)C3=C(C2)Nc2ccccc2NC3c2cccc(Oc3ccccc3)c2)cc1OC (centres unmarked) [Compound 6239507] |  | does not modulate
